Structures are written as SMILES. Read-outs that look alike come from different tables or passages of the source.

What is called IC50 is the concentration needed to halve the response being measured.

The subject of series [1] is mouse leukemia L1210 cells. In words: In vitro cytotoxicity, growth inhibition of mouse leukemia L1210 cells. It is filed as cell-based.
In series [2] the test system is human leukemia HL-60 cells. As to the kind of experiment: In vitro cytotoxicity, growth inhibition of human leukemia HL-60 cells. It is filed as cell-based.
The next series concerns L1210 tumor. In words: Chemotherapeutic effects on L1210 tumor bearing BDF^1 mice. It counts as in vivo, mouse. Conditions: day 1, QD × 4 + Day 7, QD × 2; for % Increase in lifespan: 25% or greater indicates therapeutic activity; for Average survival time: control 7.2 days. An excerpt:
Table 2 lists typical examples of chemotherapeutic effects of 3-(9-acridinylamino)-5-hydroxymethylaniline derivatives of formula I on L1210 tumor bearing BDF^1 mice in vivo.
^a Female mice, 19-21 grams, inoculated with 10^6 L1210 cells i.p
treatment schedule was day 1, QD × 4 + Day 7, QD × 2, i.p.

A short description of series [3]: Lethal doses to BDF^1 mice. The note with it: i.p. It is filed as in vivo. An excerpt: ^b Lethal Doses of these compounds to BDF^1 mice have been
The conditions of series [4]: 37° C.; cited from earlier work.
The test system of another series is L1210 leukemia. Conditions: Cain et al., J. Med. Chem. 1975; cited from earlier work.
In another series the test system is experimental tumors. The note with it: Corbett et al. 1977; Goldin et al. 1981; cited from earlier work.
A further series concerns solid tumors. Conditions: Casper et al. 1980; cited from earlier work.
The subject of a further series is topoisomerase II. The note with it: Nelson et al. 1984; Pommier et al. 1985; cited from earlier work.
For series [5], the system named is DNA. The note with it: Nelson et al. 1984; Pommier et al. 1985; cited from earlier work.
For series [6], the system named is DNA. The note with it: Wilson et al. 1984; cited from earlier work.
Where [7] appears, read: mouse leukemia L1210, read-out: IC50 for Cell growth Inhibition, L1210.
Where [8] appears, read: human leukemia HL-60, read-out: IC50 for Cell growth Inhibition, HL60.

`Nc1cc(CO)cc(Nc2c3ccccc3nc3ccccc23)c1` [Ia, 3-(9-acridinylamino)-5-hydroxymethylaniline]: in series [1] (setting [7]), the IC50 was determined as 26 nM. Further, in series [2] (setting [8]), the IC50 amounted to 97 nM. For the same molecule, in the series with L1210 tumor (5 mg/kg i.p.), the “% Increase in lifespan” value is given as 94%; the “Average weight change, Day 7” value is “+1.0 grams”; the “Average weight change, Day 11” value is “+2.0 grams”; the Average survival time was found to be 14.0 days. In addition, in the series on L1210 tumor (10 mg/kg i.p.), the “% Increase in lifespan” value is 108%; the “Average weight change, Day 7” value was -0.5 grams; the “Average weight change, Day 11” value is “+0.0 grams”; the Average survival time came to 15.0 days. The “Lethal dose to BDF^1 mice” value in series [3] (QD Day 1-Day 4 + Day 7) is listed as 20 mg/kg.

Turning to `CC(=O)CCC(=O)Nc1cc(COC(=O)CCC(C)=O)cc(Nc2c3ccccc3nc3ccccc23)c1` [Ib, 3-(9-acridinylamino)-N,O-bis(acetonylacetyl)-5-hydroxymethylaniline], the IC50 in series [1] (setting [7]) came to 98 nM. Also, the IC50 in [2] (setting [8]) amounted to 3 nM. For the same molecule, in the series on L1210 tumor (5 mg/kg i.p.), the “% Increase in lifespan” value is reported as 25%; the “Average weight change, Day 7” value is “+2.0 grams”; the Average survival time was found to be 9.0 days. Moreover, in the series on L1210 tumor (10 mg/kg i.p.), the “% Increase in lifespan” value was determined as 53%; the “Average weight change, Day 7” value is on record as “+2.0 grams”; the Average survival time is on record as 11.0 days. Further, in the series on L1210 tumor (20 mg/kg i.p.), the “% Increase in lifespan” value is listed as 94%; the “Average weight change, Day 7” value is reported as -3.0 grams; the “Average weight change, Day 11” value was -4.0 grams; the Average survival time came to 14.0 days. Besides, in series [3] (QD Day 1-Day 4, Day 7-Day 8), the “Lethal dose to BDF^1 mice” value is 50 mg/kg.

On to `CC(=O)CCC(=O)Nc1cc(CO)cc(Nc2c3ccccc3nc3ccccc23)c1` [Ic, 3-(9-acridinylamino)-5-hydroxymethyl-N-acetonylacetylaniline], for which, in [1] (setting [7]), the IC50 is 73 nM. The IC50 in series [2] (setting [8]) is 5 nM. Besides, in the series on L1210 tumor (5 mg/kg i.p.), the “% Increase in lifespan” value amounted to 53%; the “Average weight change, Day 7” value is “+2.0 grams”; the Average survival time was 11.0 days. For the same molecule, in the series with L1210 tumor (10 mg/kg i.p.), the “% Increase in lifespan” value turned out to be 25%; the “Average weight change, Day 7” value is “+1.5 grams”; the Average survival time came to 9.0 days. For the same molecule, in the series on L1210 tumor (20 mg/kg i.p.), the “% Increase in lifespan” value is 192%; the “Average weight change, Day 7” value is reported as -1.5 grams; the “Average weight change, Day 11” value is -2.0 grams; the Average survival time is given as 21.0 days. In series [3] (QD Day 1-Day 4, Day 7-Day 8), the “Lethal dose to BDF^1 mice” value is recorded as 50 mg/kg.

Turning to `O=C(O)CCC(=O)Nc1cc(COC(=O)CCC(=O)O)cc(Nc2c3ccccc3nc3ccccc23)c1` [Id, 3-(9-acridinylamino)-5-succinyloxymethyl-N-succinylaniline], the IC50 came to 2000 nM in series [1] (setting [7]) and 859 nM in series [2] (setting [8]).

In the case of `O=C(O)CCC(=O)Nc1cc(CO)cc(Nc2c3ccccc3nc3ccccc23)c1` [Ie, 3-(9-acridinylamino)-5-hydroxymethyl-N-succinylaniline], the results for the IC50 in series [1] (setting [7]) and in [2] (setting [8]) were 1070 nM and 999 nM, respectively.

Turning to `COc1cc(NS(C)(=O)=O)ccc1Nc1c2ccccc2nc2ccccc12` [m-AMSA, 4'-(9-acridinylamino)methanesulfon-m-anisidide], the IC50 was 4 nM in series [1] (Mus musculus, L1210, read-out: IC50 for Cell growth Inhibition, L1210) and 80 nM in [2] (Homo sapiens, HL-60, read-out: IC50 for Cell growth Inhibition, HL60). Also, the “half life in the presence of fresh mouse blood” value in series [4] is recorded as “about 23 minutes”. In addition, in the series on L1210 leukemia, the “activity against the L1210 leukemia” value was “high activity”. Moreover, in the series on experimental tumors, the “activity against a spectrum of experimental tumors” value is given as “high activity”. Further, the “activity against a number of solid tumors during Phase II trials” value in the series on solid tumors is “inactive”. Moreover, the “topoisomerase II inhibition” value in the series with topoisomerase II is recorded as “topoisomerase II inhibitor”. For the same molecule, the DNA intercalation entry in the series on DNA [5] is “DNA intercalator”. Also, the “chromosomal aberrations and DNA damage” value with DNA [6] was “induced chromosomal aberrations and DNA damage”.

The values are drawn from US5354864A, “3-(9-acridinylamino)-5-hydroxymethylaniline derivatives as anticancer agents” (Sloan-Kettering Institute for Cancer Research, priority 1992, dated 1994).
